Where two headings read alike, the source gives them in different places.
What was measured:
Type in all cases: cell-based
[1] = test system: P. aeruginosa (colistin-susceptible); assay: MIC, colistin-susceptible P. aeruginosa isolates, with and without otilonium bromide; conditions: Pseudomonas aeruginosa, Ob alone, read-out: Ob MIC
E. coli Bw25113 = assay: MIC, colistin-susceptible E. coli, with and without otilonium bromide; conditions: Escherichia coli, Ob alone, read-out: Ob MIC
P. aeruginosa PAO1 = assay: Bacterial motility on semisolid agar (migration distance)
Source text: It is believed that flagellar formation and flagellar motor rotation are driven by PMF. To study the effect of otilonium bromide on bacterial motility, P. aeruginosa, whose motility on a semisolid surface is dependent upon a functional flagellum, is reviewed. […] Gramicidin, an ionophore known for acting as PMF dissipater, is the positive control. […] For the experiments in FIG. 6a, P. aeruginosa is inoculated in the center of the semisolid agar containing otilonium bromide at the indicated concentrations, with gramicidin as the positive control. A set of 10 mM CaCl2 and no CaC2 plates are also prepared as indicated.
The migration distance is measured in cm and recorded after the inoculated plates ae incubated. The error bars represent the means and standard deviations (SDs). Statistical analysis is performed using unpaired two-tailed student t-test. .*, p<0.05, **, p<0.005, ***p<0.0005, ****p<0.00005.

[2] = test system: A. baumannii (colistin-resistant); assay: MIC, colistin-resistant A. baumannii isolates, with and without otilonium bromide; conditions: Acinetobacter baumannii
[3] = test system: E. coli (colistin-resistant); assay: MIC, colistin-resistant E. coli clinical isolates, with and without otilonium bromide; conditions: Escherichia coli, Ob alone, read-out: Ob MIC
mcr-1-bearing E. coli = assay: LIVE/DEAD cell viability assay, fluorescence microscopy; conditions: 20 μg/ml of otilonium bromide alone
Description: Fluorescence microscopy quantifies the number of live and dead cells and determines the degree of reduction in colistin concentration in the drug combination required for effective eradication of the test organism. […] However, in the presence of 20 μg/ml of otilonium bromide, 4 μg/ml of colistin eradicates >97% of the bacteria.

S. Typhimurium PY01 = assay: MIC, colistin-susceptible S. Typhimurium, with and without otilonium bromide; conditions: Salmonella enterica, Ob alone, read-out: Ob MIC
[4] = test system: mcr-1-bearing E. coli J53; assay: SYTOX Green membrane permeability staining
Source text: SYTOX™ Green (available from ThermoFisher Scientific) staining analysis assesses the membrane permeability of colistin-resistant E. coli before and after treatment with the colistin and otilonium bromide combination. SYTOX Green is a green-fluorescent nucleotide dye used to test membrane permeability and membrane integrity. Green fluorescence is detected by fluorescence spectrometer when bacterial cell integrity is destroyed and membrane permeability increases.

CCCCCCCCOc1ccccc1C(=O)Nc1ccc(C(=O)OCC[N+](C)(CC)CC)cc1.[Br-] [Ob, Otilonium bromide]
MIC ([1]; P. aeruginosa PA01, colistin-susceptible): > 64 µg/mL
MIC ([1]; P. aeruginosa PAER 2011-3010, colistin-susceptible): > 64 µg/mL
MIC ([1]; P. aeruginosa PAER 2011-3252, colistin-susceptible): > 64 µg/mL
MIC ([1]; P. aeruginosa PAER 2012-1527, colistin-susceptible): > 64 µg/mL
MIC ([1]; P. aeruginosa PAERC 10.296, colistin-susceptible): > 64 µg/mL
MIC ([1]; P. aeruginosa PAERC 11.2309, colistin-susceptible): > 64 µg/mL
MIC ([1]; P. aeruginosa PAERC 11.236, colistin-susceptible): > 64 µg/mL
MIC ([1]; P. aeruginosa PAERC 11.603, colistin-susceptible): > 64 µg/mL
MIC ([1]; P. aeruginosa PAERC 12.1478, colistin-susceptible): > 64 µg/mL
MIC (E. coli Bw25113): > 64 µg/mL
migration distance on semisolid agar (P. aeruginosa PAO1; 40 μM otilonium bromide supplemented with 10 mM calcium ions): significant increase in migration distance
migration distance on semisolid agar (P. aeruginosa PAO1; plates containing otilonium bromide, overnight incubation): decrease in a dose-dependent manner
MIC ([2]; ATCC17978, read-out: Ob MIC): 20 µg/mL
MIC ([2]; read-out: Ob MIC, A. baumannii ABJZ-45, colistin-resistant, Ob alone): 20 µg/mL
MIC ([2]; read-out: Ob MIC, A. baumannii ABJZ-46, colistin-resistant, Ob alone): 20 µg/mL
MIC ([2]; read-out: Ob MIC, A. baumannii ABJZ-50, colistin-resistant, Ob alone): 20 µg/mL
MIC ([3]; E. coli 5, colistin-resistant): > 64 µg/mL
MIC ([3]; E. coli 12.12.0487, colistin-resistant): > 64 µg/mL
MIC ([3]; E. coli 101, colistin-resistant): > 64 µg/mL
MIC ([3]; E. coli 119, colistin-resistant): > 64 µg/mL
MIC ([3]; E. coli 812, colistin-resistant): > 64 µg/mL
MIC ([3]; E. coli 2016.2.5 1149-1, colistin-resistant): > 64 µg/mL
MIC ([3]; E. coli 34650, colistin-resistant): > 64 µg/mL
MIC ([3]; E. coli CX48, colistin-resistant): > 64 µg/mL
MIC ([3]; E. coli CX53, colistin-resistant): > 64 µg/mL
MIC ([3]; E. coli CX116, colistin-resistant): > 64 µg/mL
MIC ([3]; E. coli WZ2431, colistin-resistant): > 64 µg/mL
MIC ([3]; E. coli WZ2909, colistin-resistant): > 64 µg/mL
MIC ([3]; E. coli WZ3903, colistin-resistant): > 64 µg/mL
MIC ([3]; E. coli WZ3906, colistin-resistant): > 64 µg/mL
MIC ([3]; E. coli WZ3920, colistin-resistant): > 64 µg/mL
MIC ([3]; E. coli WZ3951, colistin-resistant): > 64 µg/mL
MIC ([3]; E. coli WZ3955, colistin-resistant): > 64 µg/mL
MIC ([3]; E. coli X2169, colistin-resistant): > 64 µg/mL
live/dead state of cells (mcr-1-bearing E. coli): most or all mcr-1-bearing E. coli strains were alive
MIC (S. Typhimurium PY01): > 64 µg/mL
SYTOX Green fluorescence (membrane permeability) ([4]; each drug individually): significant increase in fluorescence
ability to enhance membrane permeability, compared with colistin ([4]; otilonium bromide by itself): significantly lower than colistin
